Experimental findings from US20080193397A1, “Use of Peroxide Decomposers Method For the Treatment of a Material Other Than the Human Body” (BASF Aktiengesellscaft, priority 2005, published 2008) are described below.

The experiment is described as follows: Squalene degradation test with free-radical initiator V65 (protective factor QS, synergy with tocopherol). More on the design: key to QS: QS = degradation rate without stabilizer / degradation rate with it. The conditions noted are these: squalene content by GC; for QS: 250 ppm test substance in 2% azobis(2,4-dimethylvaleronitrile) in squalene, stored open 30 days at 40° C., QSx=degradation rate0/degradation ratex; for QS + 250 ppm Tocopherol: 250 ppm test substance plus 250 ppm tocopherol in 2% azobis(2,4-dimethylvaleronitrile) in squalene, 30 days at 40° C. The procedure: General procedure for determining the synergistic effect of peroxide decomposers used according to the invention with tocopherol
3 ml of a 2% strength solution of azobis(2,4.dimethylvaleronitrile). (V65, Wako Chemical Co.) in squalene are poured together with 250 ppm of test substance (based on the squalene solution) into Fiolax test tubes ([…]) and thoroughly mixed using a laboratory shaker. The samples are then stored open in a circulatory drying cabinet for 30 days at 40° C. At intervals of 7 days, the squalene content of the samples is ascertained using gas chromatography. The reference used is a sample without the […]. The data points are documented in an XY graph and the effectiveness of the test substances is determined by reference to the slope of the decomposition curves in comparison to the reference sample.
A measure of the protective effect of a test compound is the factor QS, which is a measure of how much a stabilizer reduces the degradation rate. QSx=degradation rate0/degradation ratex

On to `Sc1nccs1` [compound 3], for which the QS is 2.75 and the “QS + 250 ppm Tocopherol” value amounted to 4.25.
The matching figures for `S=c1cc[nH]c(=S)[nH]1` [compound 4]: 1.13 and 2.08.
For `CCCc1cc(O)nc(S)n1` [compound 5] the same measures were 2.58 and 4.44.
With `S=C1CSc2ccccc2N1` [compound 6], the QS turned out to be 3.03 and the “QS + 250 ppm Tocopherol” value is on record as 3.75.
For `On1ccccc1=S` [compound 7] the same measures were 1.47 and 2.58.
For `Sc1nnc(-c2ccccc2)[nH]1` [compound 8] the same measures were 1.34 and 1.8.
The matching figures for `Oc1cccnc1S` [compound 9]: 1.66 and 2.25.
For `O=C(O)c1cccnc1S` [compound 10], the QS came to 1.18 and the “QS + 250 ppm Tocopherol” value is reported as 1.65.
Consider Tocopherol [reference compound], for which the QS came to 1.3.
